Measurements from US20230141603A1, “BENZODIAZEPINE DERIVATIVES AS GABA A GAMMA1 PAM” (Hoffmann-La Roche Inc., priority 2021, published 2023).

Key:
h-GABAA α1β3γ2 = target: T1, h-GABAA α1β3γ2 (Homo sapiens, UniProt P14867+P18507); experiment: Radioligand binding assay, [3H]Flumazenil competition, HEK293F membranes; details: for γ2/γ1 Selectivity Ratio / LogSel: Table 1; for γ2/γ1 Selectivity Ratio: Ki α1β3γ2 (nM)/Ki α2β2γ1 (nM); for LogSel: Log[Ki α1β3γ2 (nM)/Ki α2β2γ1 (nM)]
T1 construct: expressed in transfected cells; host or cells: HEK293F cells, membranes
Outline: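 [3H]Flumazenil competition binding on membranes from HEK293F cells transiently expressing human α1β3γ2 receptors. Incubation to equilibrium for 1 h at 4 °C, then filtration and scintillation counting. Ki is the mean of two determinations.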

h-GABAA α2β2γ1 = target: T2, h-GABAA α2β2γ1 (Homo sapiens, UniProt P47869+Q8N1C3); experiment: Two-electrode voltage clamp electrophysiology in Xenopus oocytes, modulation of GABA EC20 current; assay type: cell-based; set-up: host or cells: Xenopus laevis oocytes, RNA micro-injection; details: Table 2; for Efficacy (GABA)%: % modulation of GABA EC20 = 100*(Fold increase−1), compound at approx. 30-fold Ki; for Fold increase h-GABA-A α2β2γ1 oocyte @ 30-fold Ki: compound at approx. 30-fold its Ki α2β2γ1, GABA EC20, Xenopus oocytes
T2 sequence (P47869 29-451): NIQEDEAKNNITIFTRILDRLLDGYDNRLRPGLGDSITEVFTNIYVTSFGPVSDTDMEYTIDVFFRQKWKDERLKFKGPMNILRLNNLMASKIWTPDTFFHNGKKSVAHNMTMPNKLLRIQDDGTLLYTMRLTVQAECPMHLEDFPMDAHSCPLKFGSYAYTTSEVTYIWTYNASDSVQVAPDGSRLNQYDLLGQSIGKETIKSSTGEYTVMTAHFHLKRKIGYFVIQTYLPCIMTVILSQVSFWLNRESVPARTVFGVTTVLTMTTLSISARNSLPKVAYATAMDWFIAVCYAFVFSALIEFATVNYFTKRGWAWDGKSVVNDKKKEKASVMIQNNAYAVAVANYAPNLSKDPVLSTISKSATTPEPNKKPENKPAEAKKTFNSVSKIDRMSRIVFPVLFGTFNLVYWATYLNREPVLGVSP
T2 sequence (P47870 25-512 partner limits assumed): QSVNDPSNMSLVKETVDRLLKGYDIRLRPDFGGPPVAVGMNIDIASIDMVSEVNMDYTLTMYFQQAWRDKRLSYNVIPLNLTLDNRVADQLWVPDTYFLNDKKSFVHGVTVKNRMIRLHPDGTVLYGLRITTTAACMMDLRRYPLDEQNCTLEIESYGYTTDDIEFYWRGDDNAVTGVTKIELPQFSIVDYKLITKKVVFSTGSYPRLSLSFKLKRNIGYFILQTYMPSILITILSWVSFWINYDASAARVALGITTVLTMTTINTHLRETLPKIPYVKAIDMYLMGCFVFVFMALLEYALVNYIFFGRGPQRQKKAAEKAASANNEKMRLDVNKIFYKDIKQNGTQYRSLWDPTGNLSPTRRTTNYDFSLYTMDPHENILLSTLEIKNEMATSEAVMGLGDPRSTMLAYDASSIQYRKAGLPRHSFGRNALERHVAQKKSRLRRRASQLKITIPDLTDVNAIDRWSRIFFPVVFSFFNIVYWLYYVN
T2 sequence (Q8N1C3 36-465): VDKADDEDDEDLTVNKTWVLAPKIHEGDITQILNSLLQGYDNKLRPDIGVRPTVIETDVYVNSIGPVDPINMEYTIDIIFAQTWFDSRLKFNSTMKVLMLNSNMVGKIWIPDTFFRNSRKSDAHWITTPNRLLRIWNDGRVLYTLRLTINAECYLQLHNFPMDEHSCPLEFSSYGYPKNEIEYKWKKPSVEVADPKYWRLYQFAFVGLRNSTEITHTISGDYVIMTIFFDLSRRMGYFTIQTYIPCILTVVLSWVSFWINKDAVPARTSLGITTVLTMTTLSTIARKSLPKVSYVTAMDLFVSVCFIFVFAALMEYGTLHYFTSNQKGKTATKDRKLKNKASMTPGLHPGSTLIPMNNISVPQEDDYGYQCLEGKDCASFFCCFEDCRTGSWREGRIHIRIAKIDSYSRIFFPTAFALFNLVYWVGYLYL
Outline: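 Oocytes injected with receptor subunit mRNA were recorded 3–5 days later by two-electrode voltage clamp at −80 mV, room temperature, pH 7.4. Compound was applied during a second GABA EC20 pulse, with at least 3 oocytes per concentration. Efficacy is the ratio-trace extremum, expressed as % modulation of GABA EC20.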

SMILES | Ki (h-GABAA α1β3γ2) | γ2/γ1 Selectivity Ratio (h-GABAA α1β3γ2) | LogSel (h-GABAA α1β3γ2) | Efficacy (GABA)% (h-GABAA α2β2γ1) | Fold increase h-GABA-A α2β2γ1 oocyte @ 30-fold Ki (h-GABAA α2β2γ1)
Fc1cccc(F)c1C1=NCc2nnc(-c3cccnn3)n2-c2ccc(I)c(Cl)c21 [Example 39, 7-chloro-6-(2,6-difluorophenyl)-8-iodo-1-pyridazin-3-yl-4H-[1,2,4]triazolo[4,3-a][1,4]benzodiazepine] | 360 nM | 85.8 | 1.93 | 133% | 2.33
Fc1cccc(F)c1C1=NCc2nncn2-c2ccc(C(F)F)c(Cl)c21 [Example 23, 7-chloro-8-(difluoromethyl)-6-(2,6-difluorophenyl)-4H-[1,2,4]triazolo[4,3-a][1,4]benzodiazepine] | 1200 nM | 22.0 | 1.34 | 61% | 1.61
Fc1cccc(F)c1C1=NCc2nnc(-c3cccnn3)n2-c2ccc(Br)c(Cl)c21 [Example 104, 8-bromo-7-chloro-6-(2,6-difluorophenyl)-1-pyridazin-3-yl-4H-[1,2,4]triazolo[4,3-a][1,4]benzodiazepine] | 89.3 nM | 38.1 | 1.58 | 94% | 1.94
O=c1[nH]nc2n1-c1ccc(Cl)c(Cl)c1C(c1ncccc1F)=NC2 [Example 59, 7,8-dichloro-6-(3-fluoro-2-pyridyl)-2,4-dihydro-[1,2,4]triazolo[4,3-a][1,4]benzodiazepin-1-one] | 577 nM | 21.9 | 1.34 | 115% | 2.15
Cn1cc(-c2nnc3n2-c2ccc(Cl)c(Cl)c2C(c2ncccc2F)=NC3)cn1 [Example 58, 7,8-dichloro-6-(3-fluoro-2-pyridyl)-1-(1-methylpyrazol-4-yl)-4H-[1,2,4]triazolo[4,3-a][1,4]benzodiazepine] | 1300 nM | 39.4 | 1.60 | 67% | 1.67
O=c1[nH]nc2n1-c1ccc(Cl)c(Cl)c1C(c1c(F)cccc1F)=NC2 [Example 9, 7,8-dichloro-6-(2,6-difluorophenyl)-2,4-dihydro-[1,2,4]triazolo[4,3-a][1,4]benzodiazepin-1-one] | 396 nM | 49.7 | 1.70 | 72% | 1.72
Fc1cccnc1C1=NCc2nnc(-c3cccnn3)n2-c2ccc(Br)c(Cl)c21 [Example 45, 8-bromo-7-chloro-6-(3-fluoro-2-pyridyl)-1-pyridazin-3-yl-4H-[1,2,4]triazolo[4,3-a][1,4]benzodiazepine] | 1220 nM | 77.7 | 1.89 | 828% | 9.28
Cc1ccc2c(c1Cl)C(c1c(F)cccc1F)=NCc1nnc(-c3cccnn3)n1-2 [Example 48, 7-chloro-6-(2,6-difluorophenyl)-8-methyl-1-pyridazin-3-yl-4H-[1,2,4]triazolo[4,3-a][1,4]benzodiazepine] | 952 nM | 114.1 | 2.06 | 101% | 2.01
Cc1ccc2c(c1Cl)C(c1c(F)cccc1F)=NCc1nncn1-2 [Example 17, 7-chloro-6-(2,6-difluorophenyl)-8-methyl-4H-[1,2,4]triazolo[4,3-a][1,4]benzodiazepine] | 493 nM | 24.9 | 1.40 | 70% | 1.70
Fc1cccc(F)c1C1=NCc2nnc(C3CCOCC3)n2-c2ccc(Cl)c(Cl)c21 [Example 11, 7,8-dichloro-6-(2,6-difluorophenyl)-1-tetrahydropyran-4-yl-4H-[1,2,4]triazolo[4,3-a][1,4]benzodiazepine] | 690 nM | 14.1 | 1.15 | 60% | 1.60
COc1ccc2c(c1Cl)C(c1c(F)cccc1F)=NCc1nnc(-c3ccncn3)n1-2 [Example 61, 7-chloro-6-(2,6-difluorophenyl)-8-methoxy-1-pyrimidin-4-yl-4H-[1,2,4]triazolo[4,3-a][1,4]benzodiazepine] | 2140 nM | 27.6 | 1.44 | 61% | 1.61
CO[C@H]1C[C@H](c2nnc3n2-c2ccc(Cl)c(Cl)c2C(c2c(F)cccc2F)=NC3)C1 [Example 91, trans-7,8-dichloro-6-(2,6-difluorophenyl)-1-(3-methoxycyclobutyl)-4H-[1,2,4]triazolo[4,3-a][1,4]benzodiazepine] | 1340 nM | 36.8 | 1.57 | 58% | 1.58
Fc1ccccc1C1=NCc2nnc(-c3cccnn3)n2-c2ccc(C(F)(F)F)c(Cl)c21 [Example 27, 7-chloro-6-(2-fluorophenyl)-1-pyridazin-3-yl-8-(trifluoromethyl)-4H-[1,2,4]triazolo[4,3-a][1,4]benzodiazepine] | 4800 nM | 56.7 | 1.75 | 71% | 1.71
Cn1cc(-c2nnc3n2-c2ccc(C(F)(F)F)c(Cl)c2C(c2ncccc2F)=NC3)cn1 [Example 70, 7-chloro-6-(3-fluoro-2-pyridyl)-1-(1-methylpyrazol-4-yl)-8-(trifluoromethyl)-4H-[1,2,4]triazolo[4,3-a][1,4]benzodiazepine] | 5980 nM | 144.5 | 2.16 | 78% | 1.78
Fc1ccccc1C1=NCc2nnc(-c3cccnn3)n2-c2ccc(Cl)c(Cl)c21 [Example 10, 7,8-dichloro-6-(2-fluorophenyl)-1-pyridazin-3-yl-4H-[1,2,4]triazolo[4,3-a][1,4]benzodiazepine] | 645 nM | 67.7 | 1.83 | 69% | 1.69
Fc1cccc(F)c1C1=NCc2nncn2-c2ccc(I)c(Cl)c21 [Example 34, 7-chloro-6-(2,6-difluorophenyl)-8-iodo-4H-[1,2,4]triazolo[4,3-a][1,4]benzodiazepine] | 161 nM | 15.9 | 1.20 | 81% | 1.81
Fc1ccccc1C1=NCc2nnc(C3CC3)n2-c2ccc(Br)c(Cl)c21 [Example 2, 8-bromo-7-chloro-1-cyclopropyl-6-(2-fluorophenyl)-4H-[1,2,4]triazolo[4,3-a][1,4]benzodiazepine] | 486 nM | 10.1 | 1.01 | 84% | 1.84
